Columns and labels:
eIF4A = eIF4A (Homo sapiens, UniProt P60842); assay: Thermal Shift Assay (TSA)/Differential Scanning Fluorimetry (DSF); type: binding; design: 6xHis with TEV protease site (N, cleaved yes); made in house; host or cells: E. coli BL21-CodonPlus; conditions: 5 μM eIF4A, 2 mM AMPPNP
Method: Further evidence of this was uncovered in a thermal shift assay (TSA) using DSF with eIF4A and compound 28. […] Larger doses of compound 28 caused larger melting temperature (Tm) shifts in this assay, which argues that compound 28 is directly binding eIF4A.
Thermal Shift Assay (TSA)/Differential Scanning Fluorimetry (DSF). TSA/DSF experiments were performed on a Lightcycler 480 II (Roche Molecular Systems). eIF4A (5 μM) in buffer (20 mM Tris (pH 7.5), 10% glycerol, 0.1 mM EDTA, 2 mM DTT, 2 mM AMPPNP, 4% DMSO) was added to 96-well PCR plates (USA Scientific, Inc.) with or without compound. After a 5 min incubation, SYPRO orange dye was added to a final concentration of 5×. Samples were melted over a gradient from 20 to 85° C. with 20 acquisitions per ° C. at a ramp rate of 0.03° C./s.

eIF4A T158V mutant = target: T1, eIF4A T158V mutant (Homo sapiens, UniProt P60842, T158V); assay: malachite green ATPase assay, eIF4A mutant; type: biochemical
T1 construct: 6xHis with TEV protease site (N, cleaved yes); made in house; host or cells: E. coli BL21-CodonPlus
Method: (§1) Furthermore, T158 is predicted to form a hydrogen bond to the […] of the 6-nitro quinoline substitution of compound 28. The ability of the 6-nitro group to form two strong interactions with the binding pocket of eIF4A is the most likely explanation for why this substitution afforded 28 such a large gain in potency for compound 28 compared to other analogs in the inhibitor series. Mutagenesis and recombinant production of mutant eIF4A protein was performed to confirm the docking pose and predicted interactions between compound 28 and its eIF4A binding pocket (FIG. 6D).
(§2) ATPase assay. Recombinant WT or mutant eIF4A was added to a clear bottom 384 well plate (Greiner) in ATPase buffer (20 mM Tris pH 7.4, 80 mM KCl, 2.5 mM MgCl2, 1 mM DTT, 1% glycerol). Compounds were added and the plate was incubated at 37° C. for 20 min. ATP/RNA solution was added to afford a 20 μL per well reaction volume with 750 nM eIF4A, 250 μM ATP, and 0.25 mg/mL Yeast RNA (Sigma) for the initial screen and dose responses, and varying concentrations of ATP and RNA for the kinetic assays. The plate was incubated for 4 h at 37° C. for the initial screen and dose responses, and at seven time points (1 hour-7 hours) for kinetic assays. 0.04% v/v (final concentration) Tween-20 was added to a Malachite Green solution, and the Malachite Green (40 μL per well) was added. The solution was incubated for 5 minutes at room temperature and Absorbance at 660 nm was read on a SpectraMax iD5 plate reader (Molecular Devices).

eIF4A T158A mutant = target: T2, eIF4A T158A mutant (Homo sapiens, UniProt P60842, T158A); assay: malachite green ATPase assay, eIF4A mutant; type: biochemical
T2 construct: 6xHis with TEV protease site (N, cleaved yes); made in house; host or cells: E. coli BL21-CodonPlus
Method: as §1, §2

eIF4A R110K mutant = target: T3, eIF4A R110K mutant (Homo sapiens, UniProt P60842, R110K); assay: malachite green ATPase assay, eIF4A mutant; type: biochemical
T3 construct: 6xHis with TEV protease site (N, cleaved yes); made in house; host or cells: E. coli BL21-CodonPlus
Method: as §1, §2

eIF4A R110E mutant = target: T4, eIF4A R110E mutant (Homo sapiens, UniProt P60842, R110E); assay: malachite green ATPase assay, eIF4A mutant; type: biochemical
T4 construct: 6xHis with TEV protease site (N, cleaved yes); made in house; host or cells: E. coli BL21-CodonPlus
Method: as §1, §2

T2 sequence (P60842 whole entry T158A): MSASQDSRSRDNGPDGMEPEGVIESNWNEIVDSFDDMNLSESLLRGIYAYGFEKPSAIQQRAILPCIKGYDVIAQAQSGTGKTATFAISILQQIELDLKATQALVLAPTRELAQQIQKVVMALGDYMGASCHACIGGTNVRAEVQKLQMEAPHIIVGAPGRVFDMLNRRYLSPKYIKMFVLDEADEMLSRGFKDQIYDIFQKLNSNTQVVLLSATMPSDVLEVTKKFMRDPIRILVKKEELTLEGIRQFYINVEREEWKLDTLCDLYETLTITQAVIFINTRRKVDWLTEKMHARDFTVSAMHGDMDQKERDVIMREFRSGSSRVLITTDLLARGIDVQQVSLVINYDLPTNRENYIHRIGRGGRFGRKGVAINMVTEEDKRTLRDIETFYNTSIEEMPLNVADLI
T3 sequence (P60842 whole entry R110K): as the sequence (P60842 whole entry T158A) above, with R110K, A158T counted along it
T4 sequence (P60842 whole entry R110E): as the sequence (P60842 whole entry T158A) above, with R110E, A158T counted along it
T1 sequence (P60842 whole entry T158V): as the sequence (P60842 whole entry T158A) above, with A158V counted along it
eIF4A, sequence (P60842 whole entry): as the sequence (P60842 whole entry T158A) above, with A158T counted along it

SMILES: CCCCc1ccc(-c2ccc(-c3cc(C(=O)O)c4cc([N+](=O)[O-])ccc4n3)o2)cc1 [Compound 28, 2-(5-(4-butylphenyl)furan-2-yl)-6-nitroquinoline-4-carboxylic acid]
- eIF4A thermal stability / melting temperature (TSA) (eIF4A): increased eIF4A stability
- potency against eIF4A mutant in ATPase assay (eIF4A T158V mutant): lost all potency
- potency against eIF4A mutant in ATPase assay (eIF4A T158A mutant): lost all potency
- potency against eIF4A mutant in ATPase assay (eIF4A R110K mutant): remained moderately potent
- potency against eIF4A mutant in ATPase assay (eIF4A R110E mutant): lost all potency
